Results as given in patent publication US12702654B2, “Compositions and methods for treating homocystinuria and other conditions using polyamines” (THE REGENTS OF THE UNIVERSITY OF COLORADO, priority 2020, dated 2026).
“Also recorded” adds a separate entry of the source.

Key:
HO HCU mice [1] = experiment: Hepatic polyamines and MTA by LC-tandem MS in HO HCU mice; assay type: in vivo, mouse
Procedure: A comparative reference data set was generated for these mice by examining plasma levels of tHcy, methionine, cysteine, serine, glycine, dimethylglycine, methylglycine (MG, SAM and SAH). In brief, determination of plasma levels of amino acids relevant to the methionine cycle were determined using methods similar to those described in Stabler et al., Blood. 81 (1993) 3404-3413, incorporated in its entirety herein. […] The global metabolomic analysis of methionine and folate cycle related metabolites was carried out by Metabolon, Inc. Briefly, sample preparation was performed utilizing the automated MicroLab STAR® system. Sample preparation was performed using a proprietary series of organic and aqueous extractions to remove the protein fraction while allowing maximum recovery of small molecules. The resulting extract was divided into two fractions: one for analysis by liquid chromatography and one for analysis by gas chromatography. Each sample was then frozen and dried under vacuum. The LC/mass spectrometer portion of the platform was based on a Waters ACQUITY UPLC and a Thermo-Finnigan LTQ mass spectrometer, which consisted of an electrospray ionization source and linear ion-trap mass analyzer. Samples were analyzed on a Thermo-Finnigan Trace DSQ fast-scanning single-quadrupole mass spectrometer using electron impact ionization. Identification of known chemical entities was based on comparison to library entries of authenticated standards. Tissue polyamines putrescine, spermidine and spermine and 5-methylthioadenosine (MTA) were determined by liquid chromatography-tandem mass spectrometry using methods similar to those described in Stevens et al., J Chromatogr A 1217 (2010) 3282-3288, incorporated in its entirety herein.

MTHFR = experiment: Western blotting of hepatic MTHFR expression; assay type: in vivo, mouse; conditions: HO mice, 30 g/l in drinking water ad libitum, one week
Procedure: (§1) To investigate the effects of these treatments upon the hepatic regulatory changes in enzyme expression induced by HCU, the human transgenic HO mouse model of HCU was used. In brief, experimental groups consisting of 8 HO mice on a C57BL/6J background and 8 C57BL/6J WT littermate control mice bred in house were used. Mice in both groups were male and aged between 3 and 4 months. Except where otherwise stated, all mice were maintained on standard chow. All diets were administered using a paired-feeding design to ensure isocaloric intake between all experimental groups and body weights were measured once per week. There was no significant difference in body weight between mice in any of the experimental groups. Betaine and taurine were in this example, both administered by dissolving these compounds in drinking water at 30 g/l ([…] 3% w/v) and were supplied ad libitum for one week. Treatment water was replenished twice per week.
Western blotting analysis of SAHH, MTHFR and SHMT2 expression was performed in liver samples from HO mice in the presence and absence of betaine or taurine treatment.

MAT1A = experiment: Western blotting of hepatic MAT1A expression; assay type: in vivo, mouse; conditions: HO HCU mice, 30 g/l in drinking water ad libitum, one week
Procedure: as §1
(§2) These observations are the first to report betaine and taurine acting to regulate expression of these processes. Therefore, this observation supports that taurine alone or in combination with betaine and other treatments for genetic homocystinuria are viable options for avoiding dietary restraints and treating these conditions.

GNMT = experiment: Western blotting of hepatic GNMT expression; assay type: in vivo, mouse; conditions: HO HCU mice, 30 g/l in drinking water ad libitum, one week
Procedure: as §1, §2

BHMT = experiment: Hepatic BHMT protein during long-term betaine treatment; assay type: in vivo, mouse
[2] = system: mouse model of MTR deficient homocystinuria; experiment: tHcy in mouse model of MTR deficient homocystinuria; assay type: in vivo; conditions: betaine supplementation
Description: In the following exemplary experiments, it was observed that betaine supplementation was limited as observed in a mouse model of MTR deficient homocystinuria. As noted in FIG. 1, homocystinuria can occur due to defects in the Hcy remethylation enzymes MTR or MTHFR. It was observed that supplementation of betaine in certain experiments with a mouse model of MTR deficient homocystinuria lead to reduction of tHcy of approximately 25% having little effect on the condition. This modest decrease in betaine mediated treatment of MTR deficient homocystinuria has also been observed in human patients with this form of homocystinuria.

HO HCU mice [3] = experiment: Tail bleeding time / hypercoagulative phenotype in HO HCU mice; assay type: in vivo, mouse
Procedure: In another exemplary method, effect of polyamines (e.g. spermidine and spermine) on the hypercoagulative phenotype induced by HCU was assessed which is a measure of treatment for genetic HCU where rapid coagulation is a side effect of these conditions. In brief, mice containing both the human CBS transgene and no functional copy of the mouse equivalent gene were identified by PCR from the litters of progeny of 11181×MKO^+/− F1 mice backcrossed to MKO^+/− mice. These mice were designated as “human only” (HO) mice and used as a human model of HCU. […] In order to further investigate the possible therapeutic potential of polyamine (e.g. spermidine and spermine) therapy in HCU, WT and HO HCU mice were given either: […]; […] in drinking water given ad libitum; or drinking water (untreated, control). After one week, tail bleeding times were determined for untreated wild type (WT) control B6 mice and HO HCU mice from all treatment groups.

[4] = system: pro-inflammatory cytokines (TNF-α, IL-1β); experiment: Pro-inflammatory cytokine expression in HO HCU mice; assay type: in vivo, mouse
HO HCU mice [5] = conditions: earlier study, cited from earlier work
HO HCU mice [6] = experiment: Plasma metabolite levels (tHcy, methionine cycle amino acids, SAM, SAH) in HO HCU mice; assay type: in vivo, mouse; conditions: long-term betaine treatment, no methionine-restriction
Cbs null mouse = conditions: betaine treatment; cited from earlier work
[7] = HO HCU mice, one week of betaine treatment
[8] = HO HCU mice, prolonged betaine treatment

C[N+](C)(C)CC(=O)O [betaine, N,N,N-trimethylglycine]
hepatic levels of putrescine (HO HCU mice [1]; HO HCU mice ± betaine vs WT, n=8 per group, data not shown): no statistical difference | hepatic spermidine (HO HCU mice [1]; [7]): normalized relative to WT mice | hepatic spermine (HO HCU mice [1]; [7]): normalized relative to WT mice | hepatic MTA levels compared to untreated HO HCU mice (HO HCU mice [1]; HO HCU mice, one week of betaine treatment, p<0.001): approximate doubling | HCU-mediated induction of hepatic MTHFR expression (MTHFR): completely reversed | hepatic MAT1a expression (MAT1A): induced expression | hepatic GNMT expression (GNMT): induced expression | BHMT protein levels (BHMT): significantly higher levels of BHMT protein | BHMT as share of total hepatic protein (BHMT; approximately 2% without): 8-10% | reduction of tHcy [2]: approximately 25% | hypercoagulative phenotype (HO HCU mice [3]; betaine treatment (one week)): significant amelioration of the hypercoagulative phenotype; also recorded: responded to betaine treatment | coagulation phenotype (HO HCU mice [3]; prolonged betaine treatment): reversion to a hypercoagulative phenotype | plasma levels of IL-1β [4, 8]: significant increase | plasma levels of TNF-α [4, 8]: significant increase | pro-inflammatory cytokine expression ([4]; HO model, one week of betaine treatment): virtual ablation of most of the pro-inflammatory cytokine expression; also recorded: decrease pro-inflammatory cytokine expression | total homocysteine levels after a longer period of treatment (HO HCU mice [5]; HCU mice, longer period of betaine treatment): greater than 100 μM | plasma homocysteine (HO HCU mice [5]; mouse model of HCU, betaine treatment): below 100 μM | ability of betaine treatment to lower homocysteine (HO HCU mice [6]): diminished significantly over time | Hcy in Cbs (−/−) mice (Cbs null mouse): without significantly lowering Hcy | fertility of female Cbs (−/−) mice (Cbs null mouse): restored fertility | severe liver injury, steatosis, and fibrosis in Cbs (−/−) mice (Cbs null mouse): not significantly improved | survival of Cbs (−/−) mice (Cbs null mouse): improved survival
